In the supplement of paper PMC6045584:
± gives the standard deviation of the averaged measurements.

What was measured:
GEFITINIB = compound: COc1cc2ncnc(Nc3ccc(F)c(Cl)c3)c2cc1OCCCN1CCOCC1 [GEFITINIB]; assay: surviving fraction relative to DMSO-only wells; higher = less growth inhibition; details: exposure time: 5 days
Summary of the method: (§1)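 A line counted only if its three screens reached replicate Pearson r >0.7 and median Z' >0.3. Tumour cells in log phase were seeded at 250–500 per well in 384-well plates and, after 24 hours, kept in continuous contact with inhibitors at 0.5, 1, 5, 10, 50, 100, 500 and 1000 nM for five days. Surviving fraction was taken from CellTiter-Glo luminescence relative to the median of DMSO-only wells.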

CELECOXIB = compound: Cc1ccc(-c2cc(C(F)(F)F)nn2-c2ccc(S(N)(=O)=O)cc2)cc1 [CELECOXIB]; assay: as above; details: exposure time: 5 days
Summary of the method: as §1

| Test System | surviving fraction (GEFITINIB; 0.5 nM) | surviving fraction (GEFITINIB; 1 nM) | surviving fraction (GEFITINIB; 5 nM) | surviving fraction (GEFITINIB; 10 nM) | surviving fraction (GEFITINIB; 50 nM) | surviving fraction (GEFITINIB; 100 nM) | surviving fraction (GEFITINIB; 500 nM) | surviving fraction (GEFITINIB; 1000 nM) | surviving fraction (CELECOXIB; 0.5 nM) | surviving fraction (CELECOXIB; 1 nM) | surviving fraction (CELECOXIB; 5 nM) | surviving fraction (CELECOXIB; 10 nM) | surviving fraction (CELECOXIB; 50 nM) | surviving fraction (CELECOXIB; 100 nM) | surviving fraction (CELECOXIB; 500 nM) | surviving fraction (CELECOXIB; 1000 nM) |
| --- | --- | --- | --- | --- | --- | --- | --- | --- | --- | --- | --- | --- | --- | --- | --- | --- |
| SNU475 LIVER | 1.05 ± 0.096 | 1.05 ± 0.05 | 1.01 ± 0.016 | 1.03 ± 0.05 | 1.02 ± 0.045 | 0.979 ± 0.038 | 0.939 ± 0.021 | 0.898 ± 0.028 | 1.06 ± 0.039 | 1.08 ± 0.054 | 1.02 ± 0.03 | 1.05 ± 0.033 | 1.07 ± 0.026 | 1.02 ± 0.046 | 1.06 ± 0.03 | 1.11 ± 0.026 |
| SUM149 BREAST | 1.16 ± 0.077 | 1.15 ± 0.098 | 1.08 ± 0.052 | 1.15 ± 0.12 | 0.926 ± 0.016 | 0.8 ± 0.026 | 0.487 ± 0.04 | 0.448 ± 0.076 | 1.1 ± 0.056 | 1.09 ± 0.021 | 1.2 ± 0.035 | 1.16 ± 0.057 | 1.08 ± 0.021 | 1.09 ± 0.13 | 1.06 ± 0.04 | 1.12 ± 0.13 |
| SUM159 BREAST | 1.1 ± 0.026 | 1.1 ± 0.034 | 1.09 ± 0.02 | 1.06 ± 0.025 | 1.08 ± 0.014 | 1.04 ± 0.031 | 1.03 ± 0.036 | 1.036 ± 0.0092 | 1.07 ± 0.032 | 1.1 ± 0.031 | 1.09 ± 0.032 | 1.08 ± 0.048 | 1.08 ± 0.014 | 1.1 ± 0.024 | 1.07 ± 0.021 | 1.09 ± 0.017 |
| SYO1 SYNOVIAL | 1.05 ± 0.068 | 0.97 ± 0.049 | 0.982 ± 0.068 | 0.98 ± 0.012 | 0.984 ± 0.017 | 0.898 ± 0.024 | 1 ± 0.021 | 0.935 ± 0.024 | 0.952 ± 0.052 | 0.998 ± 0.055 | 0.985 ± 0.065 | 0.9986 ± 0.0091 | 0.974 ± 0.022 | 0.955 ± 0.043 | 0.975 ± 0.07 | 1.04 ± 0.061 |
| T47D BREAST | 1.08 ± 0.027 | 1.05 ± 0.064 | 1.07 ± 0.061 | 1.03 ± 0.029 | 1.13 ± 0.015 | 1.083 ± 0.01 | 1.065 ± 0.0084 | 1.06 ± 0.021 | 1.08 ± 0.026 | 1.05 ± 0.081 | 1.08 ± 0.043 | 1.08 ± 0.035 | 1.14 ± 0.054 | 1.15 ± 0.021 | 1.11 ± 0.014 | 1.13 ± 0.012 |
| U2OS BONE | 1.03 ± 0.057 | 0.9987 ± 0.0084 | 1.03 ± 0.015 | 0.989 ± 0.0078 | 1.04 ± 0.027 | 1.04 ± 0.031 | 0.959 ± 0.0095 | 0.98 ± 0.048 | 0.98 ± 0.055 | 1.03 ± 0.032 |  | 1.03 ± 0.048 | 1.05 ± 0.032 | 1.09 ± 0.016 | 1.01 ± 0.016 | 1 ± 0.043 |
| YAMATO SYNOVIAL | 1.24 ± 0.098 | 1.21 ± 0.05 | 1.25 ± 0.043 | 1.36 ± 0.15 | 1.42 ± 0.086 | 1.32 ± 0.1 | 1.35 ± 0.08 | 1.09 ± 0.046 | 1.3 ± 0.17 | 1.38 ± 0.056 | 1.4 ± 0.12 | 1.47 ± 0.11 | 1.42 ± 0.11 | 1.47 ± 0.14 | 1.39 ± 0.094 | 1.36 ± 0.21 |
| ZR751 BREAST | 1.22 ± 0.054 | 1 ± 0.1 | 1.13 ± 0.067 | 0.983 ± 0.046 | 0.901 ± 0.071 | 0.994 ± 0.035 | 0.734 ± 0.034 | 0.802 ± 0.12 | 1.1 ± 0.19 | 1.1 ± 0.077 | 1.05 ± 0.07 | 1.07 ± 0.076 | 1.09 ± 0.084 | 1.15 ± 0.1 | 1.06 ± 0.026 | 1.04 ± 0.19 |
